What is called IC50 is the point on the concentration scale where inhibition reaches its midpoint. The low end stands for greater potency, the high end for weaker potency.

Molecules are shown by their SMILES.

For one assay, the system named is Candida albicans. Description: In vitro inhibition of Candida albicans G418-sensitive proliferation. Type of assay: functional, organism-based.
In turn, `O=C(O)CN1C(=O)/C(=C/c2ccc(OCc3ccc(F)cc3F)c(OCc3ccccc3)c2)SC1=S` yielded a concentration for half-maximal inhibition (IC50) of 2100 nM.

Consider `Cc1ccc(COc2ccc(/C=C3\SC(=S)N(CC(=O)O)C3=O)cc2OCc2ccccc2)cc1`, for which the midpoint of inhibition, the IC50, lay at 600 nM.

`O=C(O)CN1C(=O)/C(=C/c2ccc(OCCc3ccccc3)c(OC(C(=O)N3CCOCC3)c3ccccc3)c2)SC1=S` (stereo not given): the half-inhibitory concentration (IC50) was determined as 43000 nM. This IC50 is about 72-fold higher than that of the compound before.

`C[C@@H](COc1ccc(/C=C2\SC(=S)N(CC(=O)O)C2=O)cc1O[C@H](C)c1ccccc1)c1ccccc1` registered a 50% inhibitory concentration (IC50) of 30 nM.

Consider `O=C(O)CN1C(=O)/C(=C/c2ccc(OCCCc3ccccc3)c(OCc3ccccc3)c2)SC1=S`, for which the IC50 came to 2400 nM.

`O=C(O)CN1C(=O)/C(=C/c2ccc(OCc3ccccc3)c(OCc3ccc(C(F)(F)F)cc3)c2)SC1=S`: the IC50 was greater than 100000 nM.

In turn, `O=C(O)CN1C(=O)/C(=C\c2ccc(OCc3ccccc3)c(OCc3ccc(OC(F)(F)F)cc3)c2)SC1=S` displayed an IC50 of 500 nM.

In the case of `O=C(O)CN1C(=O)/C(=C/c2ccc(OCCc3ccc(OC(F)(F)F)cc3)c(OCc3ccccc3)c2)SC1=S`, half-maximal inhibition (IC50) required 200 nM.

Consider `O=C(O)CN1C(=O)/C(=C/c2ccc(OCc3ccccc3)c(OCc3ccc(F)c(F)c3)c2)SC1=S`, for which the IC50 was greater than 100000 nM.

In turn, `O=C(O)CN1C(=O)/C(=C/c2ccc(OCCc3ccccc3)c(OCc3ccccc3)c2)SC1=S` gave a concentration for half-maximal inhibition (IC50) of 500 nM. This lies in the sub-micromolar range.

Take `O=C(O)CN1C(=O)/C(=C/c2ccc(OCCc3cc(F)cc(F)c3)c(OCc3ccccc3)c2)SC1=S`: the IC50 is 110 nM.

In turn, `CS(=O)(=O)c1ccc(COc2ccc(/C=C3\SC(=S)N(CC(=O)O)C3=O)cc2OCc2ccccc2)cc1` showed a half-inhibitory concentration (IC50) greater than 100000 nM.

As for `C[C@H](COc1ccc(/C=C2\SC(=S)N(CC(=O)O)C2=O)cc1O[C@@H](c1ccccc1)C(F)(F)F)c1ccccc1`, the IC50 is 550 nM.

On to `CC[C@H](COc1ccc(/C=C2\SC(=S)N(CC(=O)O)C2=O)cc1O[C@H](c1ccccc1)C(F)(F)F)c1ccccc1`, for which half-maximal inhibition (IC50) was put at 20 nM. Compared with the last compound, the IC50 is about 28-fold lower.

In the case of `CC(Oc1cc(/C=C2\SC(=S)N(CC(=O)O)C2=O)ccc1OCCc1ccccc1)c1ccccc1` (stereo not given), it took 20 nM to reach half-maximal inhibition (IC50).

Regarding `O=C(O)CN1C(=O)/C(=C/c2ccc(OCc3ccc(F)cc3)c(OCc3ccc(F)cc3)c2)SC1=S`, the midpoint of inhibition, the IC50, lay at 5200 nM. This IC50 is about 260-fold higher than that of the compound before.

With `O=C(O)CN1C(=O)/C(=C/c2ccc(OCc3c(F)cccc3F)c(OCc3c(F)cccc3F)c2)SC1=S`, the IC50 is greater than 100000 nM.

`CS(=O)(=O)c1ccc(COc2cc(/C=C3\SC(=S)N(CC(=O)O)C3=O)ccc2OCc2ccccc2)cc1` registered a concentration for half-maximal inhibition (IC50) greater than 100000 nM.

Take `COc1cccc(COc2ccc(/C=C3\SC(=S)N(CC(=O)O)C3=O)cc2OCc2cccc(OC)c2)c1`: the IC50 was greater than 100000 nM.

`O=C(O)CN1C(=O)/C(=C/c2ccc(OCc3ccccc3)c(OCc3cccnc3)c2)SC1=S`: the IC50 is greater than 100000 nM.

With `C[C@H](Oc1cc(/C=C2\SC(=S)N(CC(=O)O)C2=O)ccc1OC[C@H](C)c1ccccc1)c1ccccc1`, the IC50 turned out to be 2 nM.

In the case of `CC(C)C(Oc1cc(/C=C2\SC(=S)N(CC(=O)O)C2=O)ccc1OCCc1ccccc1)c1ccccc1` (stereo not given), 30 nM corresponded to half-maximal inhibition (IC50).

For the compound `O=C(O)CN1C(=O)/C(=C/c2ccc(OCCc3ccc(F)cc3F)c(OCc3ccccc3)c2)SC1=S`, the IC50 is 50 nM.

Take `O=C(O)CN1C(=O)/C(=C/c2ccc(OCc3ccc(C(F)(F)F)cc3)c(OCc3ccccc3)c2)SC1=S`: half-maximal inhibition (IC50) was put at 4000 nM. This IC50 lies about 80-fold higher than the previous one.

As for `O=C(O)CN1C(=O)/C(=C/c2ccc(OCc3ccc(F)c(F)c3)c(OCc3ccccc3)c2)SC1=S`, the half-inhibitory concentration (IC50) was found to be 1500 nM.

The target in the next assay is T1, Dolichyl-phosphate-mannose--protein mannosyltransferase 1 (Candida albicans (strain SC5314 / ATCC MYA-2876) (Yeast), UniProt O74189).
T1 sequence (O74189 whole entry): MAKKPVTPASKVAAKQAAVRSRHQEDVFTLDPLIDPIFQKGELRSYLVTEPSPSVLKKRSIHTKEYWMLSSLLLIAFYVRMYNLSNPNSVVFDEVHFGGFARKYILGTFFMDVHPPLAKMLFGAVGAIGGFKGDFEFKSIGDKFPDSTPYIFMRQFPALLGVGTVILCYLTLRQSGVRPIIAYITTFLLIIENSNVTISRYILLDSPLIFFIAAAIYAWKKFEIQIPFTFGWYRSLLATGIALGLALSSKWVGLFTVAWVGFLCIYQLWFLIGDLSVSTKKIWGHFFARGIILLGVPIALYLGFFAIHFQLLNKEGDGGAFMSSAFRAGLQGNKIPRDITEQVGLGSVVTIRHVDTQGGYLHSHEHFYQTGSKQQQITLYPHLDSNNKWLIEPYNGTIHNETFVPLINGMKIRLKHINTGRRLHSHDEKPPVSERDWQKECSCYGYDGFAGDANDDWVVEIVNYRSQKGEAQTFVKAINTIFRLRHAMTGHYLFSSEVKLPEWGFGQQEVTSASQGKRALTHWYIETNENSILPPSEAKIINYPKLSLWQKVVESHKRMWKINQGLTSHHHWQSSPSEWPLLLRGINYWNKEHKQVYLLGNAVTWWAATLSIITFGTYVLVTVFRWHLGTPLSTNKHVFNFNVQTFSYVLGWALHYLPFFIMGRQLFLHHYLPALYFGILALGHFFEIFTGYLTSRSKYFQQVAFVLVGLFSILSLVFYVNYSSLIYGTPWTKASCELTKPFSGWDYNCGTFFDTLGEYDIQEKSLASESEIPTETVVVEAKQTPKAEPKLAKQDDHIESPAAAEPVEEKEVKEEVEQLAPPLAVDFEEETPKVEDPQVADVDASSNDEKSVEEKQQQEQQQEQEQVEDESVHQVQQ
Description: In vitro inhibition of Candida albicans protein mannosyl transferase 1.
With `O=C(O)CN1C(=O)/C(=C/c2ccc(OCc3ccc(F)cc3F)c(OCc3ccccc3)c2)SC1=S`, the IC50 is 6500 nM.

The compound `Cc1ccc(COc2ccc(/C=C3\SC(=S)N(CC(=O)O)C3=O)cc2OCc2ccccc2)cc1` returned a 50% inhibitory concentration (IC50) of 2700 nM.

In turn, `O=C(O)CN1C(=O)/C(=C/c2ccc(OCCc3ccccc3)c(OC(C(=O)N3CCOCC3)c3ccccc3)c2)SC1=S` (stereo not given) registered a half-maximal inhibitory concentration (IC50) of 1000 nM.

Regarding `C[C@@H](COc1ccc(/C=C2\SC(=S)N(CC(=O)O)C2=O)cc1O[C@H](C)c1ccccc1)c1ccccc1`, the half-maximal inhibitory concentration (IC50) was determined as 1800 nM.

In the case of `O=C(O)CN1C(=O)/C(=C/c2ccc(OCCCc3ccccc3)c(OCc3ccccc3)c2)SC1=S`, inhibition was half-maximal at 1400 nM (IC50).

In turn, `O=C(O)CN1C(=O)/C(=C/c2ccc(OCc3ccccc3)c(OCc3ccc(C(F)(F)F)cc3)c2)SC1=S` displayed an IC50 of 11000 nM.

`O=C(O)CN1C(=O)/C(=C\c2ccc(OCc3ccccc3)c(OCc3ccc(OC(F)(F)F)cc3)c2)SC1=S` showed an IC50 of 2000 nM. Compared with the last compound, the IC50 is about 5.5-fold lower.

The compound `O=C(O)CN1C(=O)/C(=C/c2ccc(OCCc3ccc(OC(F)(F)F)cc3)c(OCc3ccccc3)c2)SC1=S` had an IC50 of 1300 nM.

As to `O=C(O)CN1C(=O)/C(=C/c2ccc(OCc3ccccc3)c(OCc3ccc(F)c(F)c3)c2)SC1=S`, the half-maximal inhibitory concentration (IC50) was determined as 4200 nM.

For the compound `O=C(O)CN1C(=O)/C(=C/c2ccc(OCCc3ccccc3)c(OCc3ccccc3)c2)SC1=S`, the IC50 is 1500 nM.

`O=C(O)CN1C(=O)/C(=C/c2ccc(OCCc3cc(F)cc(F)c3)c(OCc3ccccc3)c2)SC1=S`: the IC50 was found to be 850 nM.

Consider `CS(=O)(=O)c1ccc(COc2ccc(/C=C3\SC(=S)N(CC(=O)O)C3=O)cc2OCc2ccccc2)cc1`, for which the midpoint of inhibition, the IC50, lay at 3200 nM.

On to `C[C@H](COc1ccc(/C=C2\SC(=S)N(CC(=O)O)C2=O)cc1O[C@@H](c1ccccc1)C(F)(F)F)c1ccccc1`, for which the concentration for half-maximal inhibition (IC50) turned out to be 3500 nM.

In turn, `CC[C@H](COc1ccc(/C=C2\SC(=S)N(CC(=O)O)C2=O)cc1O[C@H](c1ccccc1)C(F)(F)F)c1ccccc1` returned a 50% inhibitory concentration (IC50) of 500 nM.

`CC(Oc1cc(/C=C2\SC(=S)N(CC(=O)O)C2=O)ccc1OCCc1ccccc1)c1ccccc1` (stereo not given) showed an IC50 of 200 nM. Compared with the last compound, the IC50 is about 2.5-fold lower.

In turn, `O=C(O)CN1C(=O)/C(=C/c2ccc(OCc3ccc(F)cc3)c(OCc3ccc(F)cc3)c2)SC1=S` showed an IC50 of 5000 nM. Compared with the last compound, the IC50 is about 25-fold higher.

With `O=C(O)CN1C(=O)/C(=C/c2ccc(OCc3c(F)cccc3F)c(OCc3c(F)cccc3F)c2)SC1=S`, the IC50 worked out at 20000 nM.

With `CS(=O)(=O)c1ccc(COc2cc(/C=C3\SC(=S)N(CC(=O)O)C3=O)ccc2OCc2ccccc2)cc1`, the midpoint of inhibition, the IC50, lay at 20000 nM. This counts as double-digit micromolar.

Compound `COc1cccc(COc2ccc(/C=C3\SC(=S)N(CC(=O)O)C3=O)cc2OCc2cccc(OC)c2)c1` returned an IC50 of 15000 nM.

For `O=C(O)CN1C(=O)/C(=C/c2ccc(OCc3ccccc3)c(OCc3cccnc3)c2)SC1=S`, the half-maximal inhibitory concentration (IC50) was found to be 43000 nM.

For `C[C@H](Oc1cc(/C=C2\SC(=S)N(CC(=O)O)C2=O)ccc1OC[C@H](C)c1ccccc1)c1ccccc1`, the 50% inhibitory concentration (IC50) came out at 500 nM.

The compound `CC(C)C(Oc1cc(/C=C2\SC(=S)N(CC(=O)O)C2=O)ccc1OCCc1ccccc1)c1ccccc1` (stereo not given) registered a half-maximal inhibitory concentration (IC50) of 700 nM.

The compound `O=C(O)CN1C(=O)/C(=C/c2ccc(OCCc3ccc(F)cc3F)c(OCc3ccccc3)c2)SC1=S` registered an IC50 of 4000 nM.

On to `O=C(O)CN1C(=O)/C(=C/c2ccc(OCc3ccc(C(F)(F)F)cc3)c(OCc3ccccc3)c2)SC1=S`, for which the IC50 was found to be 1900 nM. This IC50 is about 2.1-fold lower than that of the compound before.

Regarding `O=C(O)CN1C(=O)/C(=C/c2ccc(OCc3ccc(F)c(F)c3)c(OCc3ccccc3)c2)SC1=S`, the 50% inhibitory concentration (IC50) was 2000 nM. The IC50 values of the last two compounds are within 1.5-fold of each other.

For the origin of these results see ChEMBL document CHEMBL1137125, “Rhodanine-3-acetic acid derivatives as inhibitors of fungal protein mannosyl transferase 1 (PMT1)” (Bioorg Med Chem Lett, 2004).
